From the supplement of paper PMC4862054

Assays:
[1] = system: BT-474; assay: normalised response (% of control), CellTiter-Glo; higher = more viable cells (100 = DMSO, 0 = benzethonium chloride kill control); settings: incubation time: 72 h
Outline: (§1)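 Compound was dispensed into 384-well plates at 5 concentrations in 10-fold steps spanning a 10,000-fold range specific to that compound. Breast cancer cell lines were added as 20 µl suspension and left for 72 h before CellTox Green fluorescence (485/520 nm) and then CellTiter-Glo luminescence, read after 10 min at room temperature. Each reported value is the normalised signal at one concentration, with 0.1 % DMSO set at 100 and a positive kill control at 0 on each plate.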

[2] = system: CAL-120; assay: as above; settings: incubation time: 72 h
Outline: as §1

[3] = system: CAL-148; assay: as above; settings: incubation time: 72 h
Outline: as §1

[4] = system: CAL-51; assay: as above; settings: incubation time: 72 h
Outline: as §1

[5] = system: CAL-85-1; assay: as above; settings: incubation time: 72 h
Outline: as §1

[6] = system: DU-4475; assay: as above; settings: incubation time: 72 h
Outline: as §1

[7] = system: HCC1937; assay: as above; settings: incubation time: 72 h
Outline: as §1

[8] = system: HDQ-P1; assay: as above; settings: incubation time: 72 h
Outline: as §1

[9] = system: Hs578T; assay: as above; settings: incubation time: 72 h
Outline: as §1

[10] = system: MDA-MB-231; assay: as above; settings: incubation time: 72 h
Outline: as §1

[11] = system: MDA-MB-453; assay: as above; settings: incubation time: 72 h
Outline: as §1

[12] = system: MDA-MB-468; assay: as above; settings: incubation time: 72 h
Outline: as §1

[13] = system: BT-474; settings: 72 h
Outline: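 Breast cancer cell lines in 20 µl suspension were seeded onto 384-well plates pre-loaded with compound dissolved in 5 µl medium, then incubated 72 h. For viability, 2.5 µl CellTiter-Blue was added for 2 h at 37 °C and fluorescence read at 560/590 nm. Each plate was normalised to vehicle and a positive kill control and checked by Z'-factor. EC50 comes from the fitted percent-inhibition dose-response curve, censored at the highest concentration; rows with zero drug sensitivity score were dropped.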

[14] = system: MCF-10A; settings: 72 h
Protocol: (§2)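 Drug sensitivity and resistance testing (DSRT) of breast cancer cell lines in 384-well plates, 5 concentrations in 10-fold dilutions over a compound-specific 10,000-fold range. After 72 h, cytotoxicity was read by CellTox Green fluorescence and viability by CellTiter-Glo luminescence (multiplexed), normalised to DMSO and benzethonium chloride controls. EC50 is the inflection point of the fitted dose-response curve (bottom asymptote free, so it can be relative for partial curves) and is censored at the highest tested concentration. Rows with DSS 0 (no meaningful response) were excluded.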

[15] = system: CAL-51; settings: 72 h
Protocol: as §2

[16] = system: MDA-MB-231; settings: 72 h
Protocol: as §2

[17] = system: CAL-148; assay: normalised response (% of control), CellTiter-Glo; higher = more viable cells (100 = DMSO, 0 = benzethonium chloride kill control); settings: incubation time: 72 h; remark: listed apart in the source
Outline: as §1

[18] = system: HCC1599; assay: as above; settings: incubation time: 72 h
Outline: as §1

[19] = system: HDQ-P1; assay: as above; settings: incubation time: 72 h; remark: listed apart in the source
Outline: as §1

[20] = system: MDA-MB-436; assay: as above; settings: incubation time: 72 h
Outline: as §1

[21] = system: MFM-223; assay: as above; settings: incubation time: 72 h
Outline: as §1

Structure (SMILES)	normalised response [1]	normalised response [2]	normalised response [3]	normalised response [4]	normalised response [5]	normalised response [6]	normalised response [7]	normalised response [8]	normalised response [9]	normalised response [10]	normalised response [11]	normalised response [12]	EC50, CellTiter-Blue viability [13]	EC50, CellTox Green [14]	EC50, CellTox Green [15]	EC50, CellTox Green [16]	normalised response [17]	normalised response [18]	normalised response [19]	normalised response [20]	normalised response [21]
COC1=C2C[C@@H](C)C[C@H](OC)[C@H](O)[C@@H](C)/C=C(\C)[C@H](OC(N)=O)[C@@H](OC)/C=C\C=C(/C)C(=O)NC(=CC1=O)C2=O [Geldanamycin] (1000 nM)	101%	102%	106%	96.2%	92.7%	91.4%	89.8%	97.2%	103%	97.9%	96.6%	104%	–	–	–	–	–	–	–	–	–
CS(=O)(=O)CCNCc1ccc(-c2ccc3ncnc(Nc4ccc(OCc5cccc(F)c5)c(Cl)c4)c3c2)o1 [Lapatinib]	–	–	–	–	–	–	–	–	–	–	–	–	0.137 µM	0.678 µM	–	–	–	–	–	–	–
Cn1cnc2c(F)c(Nc3ccc(Br)cc3F)c(C(=O)NOCCO)cc21 [MEK-162] (100 nM)	88.8%	94%	91.1%	104%	99.2%	42.6%	95%	71.4%	86.2%	92%	104%	94.7%	–	–	–	–	–	–	–	–	–
CCOc1cc2ncc(C#N)c(Nc3ccc(OCc4ccccn4)c(Cl)c3)c2cc1NC(=O)/C=C/CN(C)C [Neratinib] (100 nM)	102%	99%	83.4%	112%	67.9%	101%	88%	69.8%	103%	102%	68%	82.8%	–	–	–	–	–	–	–	–	–
COc1ccc(C2=N[C@@H](c3ccc(Cl)cc3)[C@@H](c3ccc(Cl)cc3)N2C(=O)N2CCNC(=O)C2)c(OC(C)C)c1 [Nutlin-3] (1000 nM)	98.9%	93.6%	101%	83.9%	96.8%	96.5%	102%	105%	106%	106%	102%	99.9%	–	–	–	–	–	–	–	–	–
COC1=CC(c2cc3ccccc3[nH]2)=N/C1=C\c1[nH]c(C)cc1C [Obatoclax]	–	–	–	–	–	–	–	–	–	–	–	–	0.124 µM	–	2.64 µM	0.76 µM	–	–	–	–	–
COC1=CC(c2cc3ccccc3[nH]2)=N/C1=C\c1[nH]c(C)cc1C [Obatoclax] (1000 nM)	65.4%	94.2%	81.5%	99.5%	76.6%	89.7%	63.4%	97%	91.7%	64%	96.3%	83%	–	–	–	–	–	–	–	–	–
CC(=O)O[C@H]1C(=O)[C@@]2(C)[C@H]([C@H](OC(=O)c3ccccc3)[C@]3(O)C[C@H](OC(=O)[C@H](O)[C@@H](NC(=O)c4ccccc4)c4ccccc4)C(C)=C1C3(C)C)[C@]1(OC(C)=O)CO[C@@H]1C[C@@H]2O [Paclitaxel] (100 nM)	36.7%	47.7%	39.6%	29.3%	20.9%	51.5%	66.2%	60.4%	11.4%	33.2%	57.5%	21.7%	–	–	–	–	–	–	–	–	–
CC(C)(C)c1cc(NC(=O)Nc2ccc(-c3cn4c(n3)sc3cc(OCCN5CCOCC5)ccc34)cc2)no1 [Quizartinib] (100 nM)	108%	106%	100%	107%	102%	104%	102%	100%	98.5%	108%	104%	113%	–	–	–	–	–	–	–	–	–
O=C(c1ccc(OCCN2CCCCC2)cc1)c1c(-c2ccc(O)cc2)sc2cc(O)ccc12 [Raloxifene] (1000 nM)	102%	96.3%	103%	121%	94.4%	103%	100%	100%	107%	107%	103%	92.6%	–	–	–	–	–	–	–	–	–
Cn1c(=O)c(F)c(Nc2ccc(I)cc2F)c2c(=O)n(C[C@@H](O)CO)cnc21 [TAK-733] (100 nM)	67.2%	76.7%	90.4%	64.6%	69.8%	1.33%	82.7%	66.3%	96.5%	78%	123%	79.6%	–	–	–	–	–	–	–	–	–
CCS(=O)(=O)c1cccc(-c2cc(C(=O)NC3CCN(C)CC3)c(C)c3[nH]c4ncc(C)cc4c23)c1 [TAK-901] (100 nM)	82%	81.5%	45.6%	82.4%	103%	98.5%	102%	86.2%	98.2%	77.6%	160%	38.5%	–	–	–	–	–	–	–	–	–
CCCC(CCC)C(=O)O [Valproic acid] (10000 nM)	–	–	–	–	–	–	–	–	–	–	–	–	–	–	–	–	87%	87.8%	102%	105%	96.1%
